Results on 17 molecules are retold here after patent US20180214428A1, “3-(1H-INDOL-2-YL)-1H-PYRAZOLO[3,4-B]PYRIDINES AND THERAPEUTIC USES THEREOF” (Samumed, LLC, priority 2015, published 2018).

Assay [1] relates to Wnt activity (Sp5-Luc reporter gene, SW480 colon carcinoma cells). Kind of assay: Screening assay for Wnt activity: Sp5-Luc reporter gene assay in SW480 cells. In kind it is cell-based, human. To be noted: Homo sapiens; for EC50: overnight incubation; for inhibition at 10 µM: given for EC50 of >10 μM, read-out: percent inhibition at 10 μM. The method, boiled down: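 SW480 cells stably transduced with a luciferase reporter driven by an Sp5 promoter of eight TCF/LEF sites were plated at 4,000 cells/well in 1% FBS medium. They were exposed overnight at 37° C to a 10-point 1:3 dilution series from 10 μM (0.1% DMSO). Luminescence was normalized to DMSO for four-parameter EC50, or percent inhibition at 10 μM.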
(Reporter assays use an easily measured gene product as a stand-in for the process of interest.)

Assay [2] relates to SW480 colon cancer cells. Nature of the assay: Cell viability assay (CellTiter-Blue) in SW480 colon cancer cells. It counts as cell-based, human. The note with it: Homo sapiens; for EC50: 96 h, four days, CellTiter-Blue; for inhibition at 10 µM: given for EC50 of >10 μM, read-out: percent inhibition at 10 μM. The gist of the method:
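Resazurin reduction (Ex 560/Em 590 nm, ~3 h reagent incubation) served as the viability read-out after SW480 cells were treated for four days at 37 °C. Doses ran from 10 μM down to 0.0045 μM in eight 1:3 steps. Curves fitted non-linearly for EC50, else % inhibition at 10 μM reported.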

Assay [3] has as its system primary human fibroblasts derived from IPF patients (LL29 cells). Nature of the assay: Inhibition of the fibrotic process: αSMA staining in TGF-β1 treated LL29 fibroblasts. In kind it is cell-based. The note with it: Homo sapiens, Fibroblast; for EC50: 96 h, TGF-β1 20 ng/mL, 4 days, % αSMA positive cells; for inhibition at 10 µM: given for EC50 of >10 μM, TGF-β1, αSMA, read-out: percent inhibition at 10 μM. The method, boiled down: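 IPF patient-derived LL29 fibroblasts in 1% FBS medium got compound (11-point, 10 μM to 1.87 nM, 0.1% DMSO) plus TGF-β1 20 ng/mL, 4 days at 37° C. αSMA-positive live cells (SYTOX-excluded) were imaged, normalized to TGF-β1 controls and fitted for EC50; % inhibition at 10 μM given when EC50 >10 μM.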

The term EC50 denotes the midpoint of the concentration-response curve. Low values mean higher potency in that assay, high ones lower potency in that assay. The inhibition is the percentage by which the read-out fell short of the control.

As for `CC(C)C(=O)Nc1cncc(-c2cnc3[nH]nc(-c4cc5c(N6CCN(C)CC6)cccc5[nH]4)c3c2)c1` [Compound 209, N-(5-(3-(4-(4-Methylpiperazin-1-yl)-1H-indol-2-yl)-1H-pyrazolo[3,4-b]pyridin-5-yl)pyridin-3-yl)isobutyramide], the EC50 in assay [1] is 2710 nM; in assay [2], greater than 10000 nM; in assay [3], 5620 nM. Besides, the inhibition at 10 µM in assay [2] worked out at 41.5%.
Regarding `CN1CCN(c2cccc3[nH]c(-c4n[nH]c5ncc(-c6cncc(CN7CCCCC7)c6)cc45)cc23)CC1` [Compound 215, 3-(4-(4-Methylpiperazin-1-yl)-1H-indol-2-yl)-5-(5-(piperidin-1-ylmethyl)pyridin-3-yl)-1H-pyrazolo[3,4-b]pyridine], the EC50 in assay [1] was found to be 4750 nM; in assay [2], 3520 nM; in assay [3] it was 1760 nM.
As to `CN1CCN(c2cccc3[nH]c(-c4n[nH]c5ncc(-c6ccncc6)cc45)cc23)CC1` [Compound 218, 3-(4-(4-Methylpiperazin-1-yl)-1H-indol-2-yl)-5-(pyridin-4-yl)-1H-pyrazolo[3,4-b]pyridine], the inhibition at 10 µM in assay [1] worked out at 7.7%. Moreover, the EC50 is greater than 10000 nM in assay [1], 9070 nM in assay [2] and 3810 nM in assay [3].
Turning to `CN1CCN(c2cccc3[nH]c(-c4n[nH]c5ncc(-c6cncc(NC(=O)C7CCCC7)c6)cc45)cc23)CC1` [Compound 222, N-(5-(3-(4-(4-Methylpiperazin-1-yl)-1H-indol-2-yl)-1H-pyrazolo[3,4-b]pyridin-5-yl)pyridin-3-yl)cyclopentanecarboxamide], the EC50 was 1040 nM in assay [1], 828 nM in assay [2] and 790 nM in assay [3].
In the case of `CN1CCN(c2cccc3[nH]c(-c4n[nH]c5ncc(-c6cncnc6)cc45)cc23)CC1` [Compound 227, 3-(4-(4-Methylpiperazin-1-yl)-1H-indol-2-yl)-5-(pyrimidin-5-yl)-1H-pyrazolo[3,4-b]pyridine], the EC50 was 4310 nM in assay [1], 8760 nM in assay [2] and greater than 10000 nM in assay [3]. The inhibition at 10 µM in assay [3] stood at 47.8%.
For `c1cncc(-c2cnc3[nH]nc(-c4cc5ccccc5[nH]4)c3c2)c1` [Compound 231, 3-(1H-Indol-2-yl)-5-(pyridin-3-yl)-1H-pyrazolo[3,4-b]pyridine], the EC50 is 660 nM in assay [1], greater than 10000 nM in assay [2] and 8690 nM in assay [3]. In addition, in assay [2], the inhibition at 10 µM was found to be 9.1%.
As to `c1ccc2[nH]c(-c3n[nH]c4ncc(-c5cncc(CN6CCCC6)c5)cc34)cc2c1` [Compound 240, 3-(1H-Indol-2-yl)-5-(5-(pyrrolidin-1-ylmethyl)pyridin-3-yl)-1H-pyrazolo[3,4-b]pyridine], the EC50 in assay [1] was 1410 nM; in assay [2] it was 9320 nM; in assay [3], 859 nM.
On to `CC(C)(C)CC(=O)Nc1cncc(-c2cnc3[nH]nc(-c4cc5ccccc5[nH]4)c3c2)c1` [Compound 242, N-(5-(3-(1H-Indol-2-yl)-1H-pyrazolo[3,4-b]pyridin-5-yl)pyridin-3-yl)-3,3-dimethylbutanamide], for which the EC50 in assay [1] is 1640 nM; in assay [2] it was greater than 10000 nM; in assay [3] it was greater than 10000 nM. For the same molecule, the inhibition at 10 µM in assay [2] turned out to be 14.3%; in assay [3], 0%.
Turning to `CCCC(=O)Nc1cncc(-c2cnc3[nH]nc(-c4cc5ccccc5[nH]4)c3c2)c1` [Compound 243, N-(5-(3-(1H-Indol-2-yl)-1H-pyrazolo[3,4-b]pyridin-5-yl)pyridin-3-yl) butyramide], the results for the EC50 in assay [1], in assay [2] and in assay [3] were 521 nM, 632 nM and 210 nM, respectively.
For `O=C(Nc1cncc(-c2cnc3[nH]nc(-c4cc5ccccc5[nH]4)c3c2)c1)C1CCCCC1` [Compound 249, N-(5-(3-(1H-Indol-2-yl)-1H-pyrazolo[3,4-b]pyridin-5-yl)pyridin-3-yl) cyclohexanecarboxamide], the EC50 in assay [1] was 2280 nM; in assay [2], greater than 10000 nM; in assay [3] it was greater than 10000 nM. Moreover, the inhibition at 10 µM amounted to 6.7% in assay [2] and 0% in assay [3].
Turning to `c1ccc(CNCc2cncc(-c3cnc4[nH]nc(-c5cc6ccccc6[nH]5)c4c3)c2)cc1` [Compound 250, 1-(5-(3-(1H-Indol-2-yl)-1H-pyrazolo[3,4-b]pyridin-5-yl)pyridin-3-yl)-N-benzylmethanamine], the inhibition at 10 µM in assay [1] was 50.9%; in assay [2] it was 12.2%. Moreover, the EC50 is greater than 10000 nM in assay [1], greater than 10000 nM in assay [2] and 2950 nM in assay [3].
On to `CC(C)(C)C(=O)Nc1cncc(-c2cnc3[nH]nc(-c4cc5c(-c6ccoc6)cccc5[nH]4)c3c2)c1` [Compound 290, N-(5-(3-(4-(Furan-3-yl)-1H-indol-2-yl)-1H-pyrazolo[3,4-b]pyridin-5-yl)pyridin-3-yl)pivalamide], for which the inhibition at 10 µM in assay [1] came to 53%; in assay [2] it was 35.1%; in assay [3], 43.3%. Besides, the EC50 in assay [1], in assay [2] and in assay [3] was greater than 10000 nM each time.
In the case of `FC1(F)CCN(Cc2cncc(-c3cnc4[nH]nc(-c5cc6c(-c7ccoc7)cccc6[nH]5)c4c3)c2)C1` [Compound 308, 5-(5-((3,3-Difluoropyrrolidin-1-yl)methyl)pyridin-3-yl)-3-(4-(furan-3-yl)-1H-indol-2-yl)-1H-pyrazolo[3,4-b]pyridine], the values for the concentration giving a half-maximal response (EC50) in assay [1], in assay [2] and in assay [3] were 1000 nM, 2990 nM and 3210 nM, respectively.
Turning to `CC(C)CC(=O)Nc1cncc(-c2cnc3[nH]nc(-c4cc5c(-c6cc(F)cc(NCCN(C)C)c6)cccc5[nH]4)c3c2)c1` [Compound 424, N-(5-(3-(4-(3-((2-(Dimethylamino)ethyl)amino)-5-fluorophenyl)-1H-indol-2-yl)-1H-pyrazolo[3,4-b]pyridin-5-yl)pyridin-3-yl)-3-methylbutanamide], the EC50 in assay [1] worked out at 304 nM; in assay [2], 376 nM; in assay [3] it was 350 nM.
As for `CN(C)CCNc1cc(F)cc(-c2cccc3[nH]c(-c4n[nH]c5ncc(-c6cncc(N)c6)cc45)cc23)c1` [Compound 425, N^1-(3-(2-(5-(5-Aminopyridin-3-yl)-1H-pyrazolo[3,4-b]pyridin-3-yl)-1H-indol-4-yl)-5-fluorophenyl)-N^2,N^2-dimethylethane-1,2-diamine], the EC50 in assay [1] was determined as 293 nM; in assay [2] it was 527 nM; in assay [3] it was 332 nM.
Turning to `CCNCc1cncc(-c2cnc3[nH]nc(-c4cc5c(-c6cc(F)cc(NCCN(C)C)c6)cccc5[nH]4)c3c2)c1` [Compound 428, N^1-(3-(2-(5-(5-((Ethylamino)methyl)pyridin-3-yl)-1H-pyrazolo[3,4-b]pyridin-3-yl)-1H-indol-4-yl)-5-fluorophenyl)-N^2,N^2-dimethylethane-1,2-diamine], the results for the EC50 in assay [1], in assay [2] and in assay [3] were 947 nM, 757 nM and 1250 nM, respectively.
For `CC(C)Nc1cncc(-c2cnc3[nH]nc(-c4cc5c(-c6cc(F)cc(NCCN(C)C)c6)cccc5[nH]4)c3c2)c1` [Compound 434, N^1-(3-Fluoro-5-(2-(5-(5-(isopropylamino)pyridin-3-yl)-1H-pyrazolo[3,4-b]pyridin-3-yl)-1H-indol-4-yl)phenyl)-N^2,N^2-dimethylethane-1,2-diamine], in that order: 312 nM, 394 nM and 1440 nM.
